For orientation: IC50 means the concentration that inhibits the measured activity by half.

Assay [1] concerns Colo205. In words: Inhibition of cell proliferation (CellTiter-Glo or InCell analyzer), Colo205. The format is cell-based. Particulars: Homo sapiens, COLO 205, 72 h / 3 days, values given as IC50 category. A digest of the protocol: In one
In general terms: Cellular ATP, detected with luciferase, serves as a proxy for viable cell number.

The test system of assay [2] is NCI-H929. Nature of the assay: Inhibition of cell proliferation (CellTiter-Glo or InCell analyzer), NCI-H929. The conditions noted are these: Homo sapiens, 72 h / 3 days, values given as IC50 category. The format is cell-based. A digest of the protocol: In one
Assay [3] has as its target ALK (Homo sapiens, UniProt Q9UM73). Nature of the assay: ALK enzyme assay (HTRF). The format is biochemical. Particulars: 0.25 nM ALK, 15.0 μM ATP, values given as pIC50 category. Put shortly: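 Isolated ALK phosphorylates a biotinylated tyrosine peptide, 120 min at 20° C; anti-phosphotyrosine Eu-cryptate/streptavidin-XL665 HTRF read after 60 min with EDTA-containing detection mix.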
(In general: TR-FRET usually uses a lanthanide donor and a delayed reading to cut background.)

ALK, sequence (Q9UM73 19-1620): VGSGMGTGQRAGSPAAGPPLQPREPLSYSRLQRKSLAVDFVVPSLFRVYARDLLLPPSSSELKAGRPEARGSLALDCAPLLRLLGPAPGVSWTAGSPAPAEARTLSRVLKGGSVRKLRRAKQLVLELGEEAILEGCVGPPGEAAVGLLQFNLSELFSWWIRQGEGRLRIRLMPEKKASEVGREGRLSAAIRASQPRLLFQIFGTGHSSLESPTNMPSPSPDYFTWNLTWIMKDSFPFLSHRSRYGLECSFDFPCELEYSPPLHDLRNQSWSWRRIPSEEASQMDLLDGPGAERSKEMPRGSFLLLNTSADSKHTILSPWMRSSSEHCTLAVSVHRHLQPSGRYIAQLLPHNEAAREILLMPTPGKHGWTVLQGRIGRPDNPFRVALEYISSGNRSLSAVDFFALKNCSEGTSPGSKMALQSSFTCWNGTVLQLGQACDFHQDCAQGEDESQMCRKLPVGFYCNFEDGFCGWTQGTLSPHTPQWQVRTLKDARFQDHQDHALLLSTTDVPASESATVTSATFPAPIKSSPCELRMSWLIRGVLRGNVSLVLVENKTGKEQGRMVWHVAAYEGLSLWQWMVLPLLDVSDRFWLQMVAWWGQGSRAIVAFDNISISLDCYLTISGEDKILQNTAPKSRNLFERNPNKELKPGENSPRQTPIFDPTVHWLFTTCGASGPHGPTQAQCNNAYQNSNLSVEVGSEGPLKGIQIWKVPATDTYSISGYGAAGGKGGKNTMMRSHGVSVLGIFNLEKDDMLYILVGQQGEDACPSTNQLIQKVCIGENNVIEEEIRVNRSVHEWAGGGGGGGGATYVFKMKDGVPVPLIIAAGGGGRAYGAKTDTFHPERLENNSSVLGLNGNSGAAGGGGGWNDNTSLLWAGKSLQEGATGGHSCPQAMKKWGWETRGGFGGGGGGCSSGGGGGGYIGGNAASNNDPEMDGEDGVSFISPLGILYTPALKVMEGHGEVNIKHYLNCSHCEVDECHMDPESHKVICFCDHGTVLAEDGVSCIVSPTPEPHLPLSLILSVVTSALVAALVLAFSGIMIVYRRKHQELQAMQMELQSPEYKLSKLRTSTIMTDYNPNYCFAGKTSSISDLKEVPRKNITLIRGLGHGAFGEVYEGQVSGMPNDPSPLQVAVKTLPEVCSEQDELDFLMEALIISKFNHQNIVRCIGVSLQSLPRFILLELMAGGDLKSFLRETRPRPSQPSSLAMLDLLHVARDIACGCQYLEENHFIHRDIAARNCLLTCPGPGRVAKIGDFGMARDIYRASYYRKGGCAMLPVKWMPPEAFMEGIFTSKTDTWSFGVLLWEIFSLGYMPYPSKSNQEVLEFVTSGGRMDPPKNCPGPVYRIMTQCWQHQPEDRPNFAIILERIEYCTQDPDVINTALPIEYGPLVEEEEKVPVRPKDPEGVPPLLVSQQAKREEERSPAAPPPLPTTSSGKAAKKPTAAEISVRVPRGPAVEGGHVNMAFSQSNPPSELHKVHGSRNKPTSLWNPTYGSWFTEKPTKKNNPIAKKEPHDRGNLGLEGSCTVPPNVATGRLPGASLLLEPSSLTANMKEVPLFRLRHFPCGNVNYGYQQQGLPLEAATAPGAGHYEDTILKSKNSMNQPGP

For the compound `CCCN1CCC(c2ccc(Nc3nc(Nc4cc(F)cc(F)c4C(N)=O)c4cc[nH]c4n3)c(OC)c2)CC1` [Example 92, 2,4-difluoro-6-[(2-{[2-(methyloxy)-4-(1-propyl-4-piperidinyl)phenyl]amino}-1H-pyrrolo[2,3-d]pyrimidin-4-yl)amino]benzamide], the figures for the IC50 in assay [1], in assay [2] and in assay [3] were under 250 nM, under 250 nM and 0.251 to 1 nM, respectively.
As to `COc1cc2c(cc1Nc1nc(Nc3cccc(F)c3C(N)=O)c3cc[nH]c3n1)N(C(=O)CN(C)C)CCC2` [Example 210, 2-[(2-{[1-(N,N-dimethylglycyl)-6-(methyloxy)-1,2,3,4-tetrahydro-7-quinolinyl]amino}-1H-pyrrolo[2,3-d]pyrimidin-4-yl)amino]-6-fluorobenzamide], the results for the IC50 in assay [1], in assay [2] and in assay [3] were under 250 nM, under 250 nM and 0.251 to 1 nM, respectively.
Consider `COc1cc(N2CCC(N3CCOCC3)CC2)ccc1Nc1nc(Nc2cc(F)ccc2C(N)=O)c2cc[nH]c2n1` [Example 78, 4-fluoro-2-{[2-({2-(methyloxy)-4-[4-(4-morpholinyl)-1-piperidinyl]phenyl}amino)-1H-pyrrolo[2,3-d]pyrimidin-4-yl]amino}benzamide], for which the half-maximal inhibitory concentration (IC50) in assay [1] was 250 to 1000 nM; in assay [3] it was 0.251 to 1 nM.
In the case of `COc1cc2c(cc1Nc1nc(Nc3cccc(F)c3C(N)=O)c3cc[nH]c3n1)N(CCN(C)C)CC2` [Example 117, 2-[(2-{[1-[2-(dimethylamino)ethyl]-5-(methyloxy)-2,3-dihydro-1H-indol-6-yl]amino}-1H-pyrrolo[2,3-d]pyrimidin-4-yl)amino]-6-fluorobenzamide], the IC50 in assay [1] is over 1000 nM; in assay [2] it was 250 to 1000 nM; in assay [3], 5.01 to 200 nM.
As to `COc1ccc(NC(=O)CN(C)C)cc1Nc1nc(Nc2ccccc2C(N)=O)c2cc[nH]c2n1` [Example 15, 2-[(2-{[5-[(N,N-dimethylglycyl)amino]-2-(methyloxy)phenyl]amino}-1H-pyrrolo[2,3-d]pyrimidin-4-yl)amino]benzamide], the figures for the half-maximal inhibitory concentration (IC50) in assay [1] and in assay [3] were under 250 nM and 0.251 to 1 nM, respectively.
As to `COc1cc(N2CCN(C(C)C)CC2)ccc1Nc1nc(Nc2cc(F)cc(F)c2C(N)=O)c2cc[nH]c2n1` [Example 89, 2,4-difluoro-6-[(2-{[4-[4-(1-methylethyl)-1-piperazinyl]-2-(methyloxy)phenyl]amino}-1H-pyrrolo[2,3-d]pyrimidin-4-yl)amino]benzamide], the figures for the half-inhibitory concentration (IC50) in assay [1], in assay [2] and in assay [3] were 250 to 1000 nM, under 250 nM and 0.251 to 1 nM, respectively.
For the compound `CNC(=O)c1c(F)cccc1Nc1nc(Nc2cc3c(cc2OC)CCC(=O)N3)nc2[nH]ccc12` [Example 222, 2-fluoro-N-methyl-6-[(2-{[6-(methyloxy)-2-oxo-1,2,3,4-tetrahydro-7-quinolinyl]amino}-1H-pyrrolo[2,3-d]pyrimidin-4-yl)amino]benzamide], the IC50 was over 1000 nM in assay [1], 250 to 1000 nM in assay [2] and 5.01 to 200 nM in assay [3].
In the same order, the values of `COc1cc2c(cc1Nc1nc(Nc3cccc(F)c3C(N)=O)c3cc(C)[nH]c3n1)N(C(=O)CN(C)C)CC2` [Example 262, 2-[(2-{[1-(N,N-dimethylglycyl)-5-(methyloxy)-2,3-dihydro-1H-indol-6-yl]amino}-6-methyl-1H-pyrrolo[2,3-d]pyrimidin-4-yl)amino]-6-fluorobenzamide] are over 1000 nM, over 1000 nM and 5.01 to 200 nM.
Take `COc1cc2c(cc1Nc1nc(Nc3cccc(F)c3C(N)=O)c3cc[nH]c3n1)N(C(=O)CN(C)OC)CC2` [Example 144, 2-fluoro-6-[(2-{[1-[N-methyl-N-(methyloxy)glycyl]-5-(methyloxy)-2,3-dihydro-1H-indol-6-yl]amino}-1H-pyrrolo[2,3-d]pyrimidin-4-yl)amino]benzamide]: the half-maximal inhibitory concentration (IC50) in assay [1] was over 1000 nM; in assay [2], 250 to 1000 nM; in assay [3] it was 5.01 to 200 nM.
In the same order, the values of `COc1cc2c(cc1Nc1nc(Nc3cccc(F)c3C(N)=O)c3cc[nH]c3n1)N(C(=O)CCN1CCN(C(C)C)CC1)CC2` [Example 188, 2-fluoro-6-[(2-{[1-{3-[4-(1-methylethyl)-1-piperazinyl]propanoyl}-5-(methyloxy)-2,3-dihydro-1H-indol-6-yl]amino}-1H-pyrrolo[2,3-d]pyrimidin-4-yl)amino]benzamide] are 250 to 1000 nM, 250 to 1000 nM and 5.01 to 200 nM.
Turning to `COc1ccc(OC[C@@H](O)CN(C)C)cc1Nc1nc(Nc2cc(F)ccc2C(N)=O)c2cc[nH]c2n1` [Example 86, 2-[(2-{[5-{[(2S)-3-(dimethylamino)-2-hydroxypropyl]oxy}-2-(methyloxy)phenyl]amino}-1H-pyrrolo[2,3-d]pyrimidin-4-yl)amino]-4-fluorobenzamide], the IC50 in assay [1] is under 250 nM; in assay [3], 0.251 to 1 nM.
On to `COc1cc(OCCCN2CCN(C)CC2)ccc1Nc1nc(Nc2cccc(F)c2C(N)=O)c2cc[nH]c2n1` [Example 205, 2-fluoro-6-({2-[(2-(methyloxy)-4-{[3-(4-methyl-1-piperazinyl)propyl]oxy}phenyl)amino]-1H-pyrrolo[2,3-d]pyrimidin-4-yl}amino)benzamide], for which the half-inhibitory concentration (IC50) in assay [1] is under 250 nM; in assay [2], under 250 nM; in assay [3] it was 1.26 to 3.98 nM.
With `COc1cc2c(cc1Nc1nc(Nc3cccc(F)c3C(N)=O)c3cc[nH]c3n1)N(C(=O)CCN(C)C)CCC2` [Example 214, 2-[(2-{[1-(N,N-dimethyl-β-alanyl)-6-(methyloxy)-1,2,3,4-tetrahydro-7-quinolinyl]amino}-1H-pyrrolo[2,3-d]pyrimidin-4-yl)amino]-6-fluorobenzamide], the figures for the IC50 in assay [1], in assay [2] and in assay [3] were 250 to 1000 nM, under 250 nM and 5.01 to 200 nM, respectively.
For `COc1cc(N2CCN(S(C)(=O)=O)CC2)ccc1Nc1nc(Nc2cccc(F)c2C(N)=O)c2cc[nH]c2n1` [Example 204, 2-fluoro-6-{[2-({2-(methyloxy)-4-[4-(methylsulfonyl)-1-piperazinyl]phenyl}amino)-1H-pyrrolo[2,3-d]pyrimidin-4-yl]amino}benzamide], in that order: under 250 nM, under 250 nM and 0.251 to 1 nM.
In the same order, the values of `CNC(=O)c1c(F)cccc1Nc1nc(Nc2cc3c(cc2OC)CCN3C(=O)CN(C)C)nc2[nH]cc(C)c12` [Example 258, 2-[(2-{[1-(N,N-dimethylglycyl)-5-(methyloxy)-2,3-dihydro-1H-indol-6-yl]amino}-5-methyl-1H-pyrrolo[2,3-d]pyrimidin-4-yl)amino]-6-fluoro-N-methylbenzamide] are 250 to 1000 nM, 250 to 1000 nM and 0.251 to 1 nM.
`COc1cc2c(cc1Nc1nc(Nc3cccc(F)c3C(N)=O)c3cc[nH]c3n1)N(C(=O)CN1CCOCC1)CC2` [Example 185, 2-fluoro-6-[(2-{[5-(methyloxy)-1-(4-morpholinylacetyl)-2,3-dihydro-1H-indol-6-yl]amino}-1H-pyrrolo[2,3-d]pyrimidin-4-yl)amino]benzamide]: the IC50 in assay [1] was over 1000 nM; in assay [2], under 250 nM; in assay [3] it was 5.01 to 200 nM.
As for `COc1ccc(C(N)=O)c(Nc2nc(Nc3ccc(N4CCOC[C@@H]4C)cc3OC)nc3[nH]ccc23)c1` [Example 39, 2-[(2-{[4-[(3S)-3-methyl-4-morpholinyl]-2-(methyloxy)phenyl]amino}-1H-pyrrolo[2,3-d]pyrimidin-4-yl)amino]-4-(methyloxy)benzamide], the IC50 was 250 to 1000 nM in assay [1] and 1.26 to 3.98 nM in assay [3].
For `CN(C)CC(=O)Nc1ccc(F)c(Nc2nc(Nc3ccccc3C(N)=O)c3cc[nH]c3n2)c1` [Example 17, 2-{[2-({5-[(N,N-dimethylglycyl)amino]-2-fluorophenyl}amino)-1H-pyrrolo[2,3-d]pyrimidin-4-yl]amino}benzamide], in that order: under 250 nM and 0.251 to 1 nM.
Turning to `CN(C)CC(=O)Nc1ccc(OC(F)(F)F)c(Nc2nc(Nc3ccccc3C(N)=O)c3cc[nH]c3n2)c1` [Example 16, 2-{[2-({5-[(N,N-dimethylglycyl)amino]-2-[(trifluoromethyl)oxy]phenyl}amino)-1H-pyrrolo[2,3-d]pyrimidin-4-yl]amino}benzamide], the figures for the IC50 in assay [1] and in assay [3] were 250 to 1000 nM and 0.251 to 1 nM, respectively.
For `CCCN1CCCC(c2ccc(Nc3nc(Nc4ccccc4C(N)=O)c4cc[nH]c4n3)c(OC)c2)C1` (centres unmarked) [Example 3, 2-[(2-{[2-(methyloxy)-4-(1-propyl-3-piperidinyl)phenyl]amino}-1H-pyrrolo[2,3-d]pyrimidin-4-yl)amino]benzamide], in that order: under 250 nM and 0.251 to 1 nM.
In the same order, the values of `COc1ccc(OC[C@@H](O)CN2CCCC2)cc1Nc1nc(Nc2cc(F)c(F)cc2C(N)=O)c2cc[nH]c2n1` [Example 107, 4,5-difluoro-2-[(2-{[5-{[(2S)-2-hydroxy-3-(1-pyrrolidinyl)propyl]oxy}-2-(methyloxy)phenyl]amino}-1H-pyrrolo[2,3-d]pyrimidin-4-yl)amino]benzamide] are 250 to 1000 nM and 1.26 to 3.98 nM.
For `CCCN1CCC=C(c2ccc(Nc3nc(Nc4ccc(F)cc4C(N)=O)c4cc[nH]c4n3)c(OC)c2)C1` [Example 54, 5-fluoro-2-[(2-{[2-(methyloxy)-4-(1-propyl-1,2,5,6-tetrahydro-3-pyridinyl)phenyl]amino}-1H-pyrrolo[2,3-d]pyrimidin-4-yl)amino]benzamide], in that order: under 250 nM and 0.251 to 1 nM.
For the compound `COc1cc(N2CCOC[C@@H]2C)ccc1Nc1nc(Nc2cc(F)ccc2C(N)=O)c2cc[nH]c2n1` [Example 84, 4-fluoro-2-[(2-{[4-[(3S)-3-methyl-4-morpholinyl]-2-(methyloxy)phenyl]amino}-1H-pyrrolo[2,3-d]pyrimidin-4-yl)amino]benzamide], the values for the IC50 in assay [1] and in assay [3] were under 250 nM and 1.26 to 3.98 nM, respectively.

The values are drawn from US7981903B2, “2-[2-{phenylamino}-1H-pyrrolo[2,3-D]pyrimidin-4-yl)amino] benzamide derivatives as IGF-1R inhibitors for the treatment of cancer” (GlaxoSmithKline LLC, priority 2007, dated 2011).
